Source: patent US11365193B2, “Oxadiazole compound and fungicide for agricultural and horticultural use” (Nippon Soda Co., Ltd., priority 2017, dated 2022)

Tested on: wheat red rust pathogen (Puccinia recondita)
Assay: Test Example 1: wheat red rust disease control test (100 ppm)
Format: in vivo
Conditions: 100 ppm by mass sprayed on wheat young seedlings (Norin 61), inoculated after air-drying; blotch area ratio 12 days after inoculation
Description: 5 parts by, mass of an oxadiazole compound, 93.5 parts by mass of dimethylformamide, and 1.5 parts by mass of polyoxyethylene alkyl aryl ether were mixed and dissolved to obtain an emulsion (I) containing 5% by mass of the active ingradient.
The control value was calculated by the following formula. Control value (%)=100-{blotch area ratio in treated area/blotch area ratio in untreated area}×100
Water was added to the emulsion (I) such that the concentration of the oxadiazole compound became 100 ppm by mass, and then the oxadiazole compound was dissolved to obtain a pharmaceutical solution. Then, the pharmaceutical solution was sprayed on wheat young seedings (variety “Norin 61” at the first to second leaf stage) grown in nursery pots. After air-drying, the wheat young seedings sprayed with the pharmaceutical solution were inoculated with summer spores of wheat red rust pathogen (Puccinia recondita) by spraying the summer spores (in treated area).
As a control, wheat young seedings that were not sprayed with the pharmaceutical solution were inoculated in the same manner as mentioned above (in untreated area).
The wheat young seedings were placed under humid conditions at 20° C. for 1 day. […] After 12 days passed from inoculation, leaves of the wheat seedings were visually observed to measure the blotch area ratio, and the control value was calculated.

In the case of `C[S+]([O-])CCOc1cc(=O)n(Cc2ccc(-c3noc(C(F)(F)F)n3)cc2)cn1` (centres unmarked) [Compound 2-75], the Control value is reported as 2-75%.

Tested on: not given
Assay: not given
Conditions: not given

Compared with `O=c1ccccn1-c1ccc(-c2noc(C(F)(F)F)n2)cc1` [Compound 1-2], `Cc1ccn(-c2ccc(-c3noc(C(F)(F)F)n3)cc2)c(=O)c1` [Compound 1-8] is higher in melting point: 130 to 133 °C for the first, 151 to 154 °C for the second.

First: O=c1c2ccccc2ncn1Cc1ccc(-c2noc(C(F)(F)F)n2)cc1 [Compound 1-3]
Second: O=c1c2ccccc2ncn1-c1ccc(-c2noc(C(F)(F)F)n2)cc1 [Compound 1-4]
The melting point of the first is lower: 178 to 180 °C for the first, 233 to 235 °C for the second.

Compared with `O=c1cccnn1-c1ccc(-c2noc(C(F)(F)F)n2)cc1` [Compound 1-5], `O=c1cccnn1CCc1ccc(-c2noc(C(F)(F)F)n2)cc1` [Compound 1-33] is lower in melting point: 97 to 100 °C for the first, 74 to 80 °C for the second.

Compared with `O=c1cc2ccccc2cn1Cc1ccc(-c2noc(C(F)(F)F)n2)cc1` [Compound 1-6], `O=c1c2ccccc2cnn1Cc1ccc(-c2noc(C(F)(F)F)n2)cc1` [Compound 1-11] is lower in melting point: 165 to 168 °C for the first, 133 to 136 °C for the second.

First: Cc1ccc(=O)n(-c2ccc(-c3noc(C(F)(F)F)n3)cc2)n1 [Compound 1-9]
Second: CSc1cnn(-c2ccc(-c3noc(C(F)(F)F)n3)cc2)c(=O)c1 [Compound 1-16]
The melting point of the first is lower: 78 to 83 °C for the first, 151 to 153 °C for the second.

First: O=c1c2ccccc2cnn1-c1ccc(-c2noc(C(F)(F)F)n2)cc1 [Compound 1-10]
Second: C[S+]([O-])c1cnn(-c2ccc(-c3noc(C(F)(F)F)n3)cc2)c(=O)c1 (centres unmarked) [Compound 1-17]
The melting point of the first is lower: 141 to 144 °C for the first, 145 to 147 °C for the second.

First: O=c1cccnn1CC1(c2ccc(-c3noc(C(F)(F)F)n3)cc2)OCCO1 [Compound 1-14]
Second: O=C(Cn1ncccc1=O)c1ccc(-c2noc(C(F)(F)F)n2)cc1 [Compound 1-15]
The melting point of the first is lower: 105 to 107 °C for the first, 122 to 125 °C for the second.

First: CS(=O)(=O)c1cnn(-c2ccc(-c3noc(C(F)(F)F)n3)cc2)c(=O)c1 [Compound 1-18]
Second: Cn1ncc2c(=O)n(Cc3ccc(-c4noc(C(F)(F)F)n4)cc3)cnc21 [Compound 1-24]
The melting point of the first is lower: 186 to 188 °C for the first, 225 to 228 °C for the second.

Compared with `Cc1noc2cnn(Cc3ccc(-c4noc(C(F)(F)F)n4)cc3)c(=O)c12` [Compound 1-21], `Cc1nn(C)c2cnn(Cc3ccc(-c4noc(C(F)(F)F)n4)cc3)c(=O)c12` [Compound 1-22] is higher in melting point: 158 to 160 °C for the first, 187 to 190 °C for the second.

Compared with `Cc1nc2c(cnn2C)c(=O)n1Cc1ccc(-c2noc(C(F)(F)F)n2)cc1` [Compound 1-23], `Cc1nn(C)c2nc(C)n(Cc3ccc(-c4noc(C(F)(F)F)n4)cc3)c(=O)c12` [Compound 1-30] is higher in melting point: 118 to 120 °C for the first, 163 to 166 °C for the second.

First: O=c1c2c(ncn1Cc1ccc(-c3noc(C(F)(F)F)n3)cc1)CCC2 [Compound 1-25]
Second: O=c1c2c(ncn1Cc1ccc(-c3noc(C(F)(F)F)n3)cc1)CCCC2 [Compound 1-26]
The melting point of the first is higher: 165 to 168 °C for the first, 157 to 160 °C for the second.

First: O=C(C(=NOCC(F)(F)F)c1ccc(-c2noc(C(F)(F)F)n2)cc1)n1ncccc1=O [Compound 1-29]
Second: O=c1cccnn1CC(O)c1ccc(-c2noc(C(F)(F)F)n2)cc1 (centres unmarked) [Compound 1-36]
The melting point of the first is lower: 82 to 98 °C for the first, 119 to 121 °C for the second.

Compared with `O=c1cc2c(nn1Cc1ccc(-c3noc(C(F)(F)F)n3)cc1)CCC2` [Compound 1-31], `O=c1c2c(cnn1Cc1ccc(-c3noc(C(F)(F)F)n3)cc1)OCCC2` [Compound 1-32] is lower in melting point: 94 to 97 °C for the first, 87 to 89 °C for the second.

First: Cc1nc2c(c(=O)n1Cc1ccc(-c3noc(C(F)(F)F)n3)cc1)CCCC2 [Compound 1-34]
Second: Cl.O=c1c2c(ncn1Cc1ccc(-c3noc(C(F)(F)F)n3)cc1)CNCC2 [Compound 1-47]
The melting point of the first is lower: 132 to 135 °C for the first, 192 to 195 °C for the second.

First: CON=CCOc1ncn(Cc2ccc(-c3noc(C(F)(F)F)n3)cc2)c(=O)c1Cl [Compound 1-37]
Second: CON=CCOc1cc(=O)n(Cc2ccc(-c3noc(C(F)(F)F)n3)cc2)cn1 [Compound 1-38]
The melting point of the first is higher: 201 to 203 °C for the first, 143 to 148 °C for the second.

First: CCON=CCOc1cc(=O)n(Cc2ccc(-c3noc(C(F)(F)F)n3)cc2)cn1 [Compound 1-40]
Second: N#CCON=CCOc1cc(=O)n(Cc2ccc(-c3noc(C(F)(F)F)n3)cc2)cn1 [Compound 1-46]
The melting point of the first is higher: 139 to 142 °C for the first, 131 to 133 °C for the second.

First: COCCON=CCOc1cc(=O)n(Cc2ccc(-c3noc(C(F)(F)F)n3)cc2)cn1 [Compound 1-41]
Second: O=c1cc(OCC=NOCC(F)F)ncn1Cc1ccc(-c2noc(C(F)(F)F)n2)cc1 [Compound 1-45]
The melting point of the first is lower: 94 to 96 °C for the first, 111 to 115 °C for the second.

Compared with `O=c1cc(OCC=NOC2CCCCO2)ncn1Cc1ccc(-c2noc(C(F)(F)F)n2)cc1` (centres unmarked) [Compound 1-42], `O=c1cc(OCC=NOCc2ccccc2)ncn1Cc1ccc(-c2noc(C(F)(F)F)n2)cc1` [Compound 1-44] is lower in melting point: 103 to 106 °C for the first, 78 to 80 °C for the second.

First: O=c1cc(N2CCOCC2)ncn1Cc1ccc(-c2noc(C(F)(F)F)n2)cc1 [Compound 1-52]
Second: O=C(Cc1ccc(-c2noc(C(F)(F)F)n2)cc1)N1CCC(=NO)CC1 [Compound 25]
The melting point of the first is higher: 235 to 237 °C for the first, 191 to 192 °C for the second.

Compared with `CON=C1CN(C(=O)c2ccc(-c3noc(C(F)(F)F)n3)cc2)C1` [Compound 2], `CON=C1CN(C(=O)Cc2ccc(-c3noc(C(F)(F)F)n3)cc2)C1` [Compound 7] is higher in melting point: 162 to 165 °C for the first, 172 to 176 °C for the second.

First: CCON=C1CN(C(=O)Cc2ccc(-c3noc(C(F)(F)F)n3)cc2)C1 [Compound 5]
Second: CCSCON=C1CN(C(=O)Cc2ccc(-c3noc(C(F)(F)F)n3)cc2)C1 [Compound 12]
The melting point of the first is higher: 130 to 134 °C for the first, 73 to 75 °C for the second.

First: CCON=C1CCN(C(=O)Cc2ccc(-c3noc(C(F)(F)F)n3)cc2)CC1 [Compound 6]
Second: CON=C1CCN(C(=O)Cc2ccc(-c3noc(C(F)(F)F)n3)cc2)CC1 [Compound 8]
The melting point of the first is higher: 86 to 88 °C for the first, 73 to 76 °C for the second.

First: O=C(Cc1ccc(-c2noc(C(F)(F)F)n2)cc1)N1CC(=NOCC(F)(F)F)C1 [Compound 9]
Second: O=C(Cc1ccc(-c2noc(C(F)(F)F)n2)cc1)N1CCC(=NOCC(F)(F)F)CC1 [Compound 10]
The melting point of the first is higher: 126 to 129 °C for the first, 84 to 86 °C for the second.

First: CCON=C1CCN(C(=O)Cc2cccc(-c3noc(C(F)(F)F)n3)c2)CC1 [Compound 11]
Second: N#CCON=C1CCN(C(=O)Cc2ccc(-c3noc(C(F)(F)F)n3)cc2)CC1 [Compound 20]
The melting point of the first is lower: 83 to 86 °C for the first, 126 to 128 °C for the second.

First: O=C(Cc1ccc(-c2noc(C(F)(F)F)n2)cc1)N1CCC(=NOC2CCCCO2)CC1 (centres unmarked) [Compound 15]
Second: O=C(Cc1ccc(-c2noc(C(F)(F)F)n2)cc1)N1CC(=NOC2CCCCO2)C1 (centres unmarked) [Compound 16]
The melting point of the first is higher: 104 to 106 °C for the first, 82 to 83 °C for the second.

First: O=C(Cc1ccc(-c2noc(C(F)(F)F)n2)cc1)N1CC(=NOCc2ccccc2)C1 [Compound 17]
Second: O=C(Cc1ccc(-c2noc(C(F)(F)F)n2)cc1)N1CC(=NOCC(F)F)C1 [Compound 41]
The melting point of the first is lower: 139 to 140 °C for the first, 140 to 141 °C for the second.

Compared with `COCCON=C1CN(C(=O)Cc2ccc(-c3noc(C(F)(F)F)n3)cc2)C1` [Compound 19], `N#CCON=C1CN(C(=O)Cc2ccc(-c3noc(C(F)(F)F)n3)cc2)C1` [Compound 21] is higher in melting point: 114 to 116 °C for the first, 125 to 126 °C for the second.

Compared with `CC(C)ON=C1CCN(C(=O)Cc2ccc(-c3noc(C(F)(F)F)n3)cc2)CC1` [Compound 22], `CSCCON=C1CCN(C(=O)Cc2ccc(-c3noc(C(F)(F)F)n3)cc2)CC1` [Compound 27] is lower in melting point: 96 to 100 °C for the first, 68 to 69 °C for the second.

First: N#CCCON=C1CCN(C(=O)Cc2ccc(-c3noc(C(F)(F)F)n3)cc2)CC1 [Compound 26]
Second: CON=C1CCN(C(=O)Cc2ccc(-c3noc(C(F)(F)F)n3)cc2)CC1SC (centres unmarked) [Compound 33]
The melting point of the first is lower: 71 to 72 °C for the first, 120 to 121 °C for the second.

First: CCON=C1CN(C(=O)C(=O)c2ccc(-c3noc(C(F)(F)F)n3)cc2)C1 [Compound 30]
Second: CCON=C1CN(C(=O)C(=NOC)c2ccc(-c3noc(C(F)(F)F)n3)cc2)C1 [Compound 31]
The melting point of the first is lower: 139 to 141 °C for the first, 147 to 149 °C for the second.

First: CCON=C1CCN(C(=O)Cc2ccc(-c3noc(C(F)(F)F)n3)cc2)CC1SC (centres unmarked) [Compound 32]
Second: CCON=C1CCN(C(=O)Cc2ccc(-c3noc(C(F)(F)F)n3)cc2)CC1S(C)(=O)=O (centres unmarked) [Compound 34]
The melting point of the first is lower: 80 to 82 °C for the first, 128 to 130 °C for the second.

Compared with `CCON=C1CN(C(=O)C(SC)c2ccc(-c3noc(C(F)(F)F)n3)cc2)C1` (centres unmarked) [Compound 44], `CCCON=C1CN(C(=O)C(SCC)c2ccc(-c3noc(C(F)(F)F)n3)cc2)C1` (centres unmarked) [Compound 45] is lower in melting point: 108 to 110 °C for the first, 83 to 85 °C for the second.
